12 molecules from patent publication US6762189B1, “5-pyrimidinecarboxamide derivatives and the pharmaceutical compositions containing said derivatives” (Dong Wha Pharm. Ind. Co., Ltd., priority 1999, dated 2004) can be followed below.

Assay [1] deals with T1, HIV reverse transcriptase (Human immunodeficiency virus type 1 group M subtype B, UniProt P04585).
T1 construct: activities of HIV reverse transcriptase; purchased Boehringer Mannheim
The experiment in a line: In vitro HIV reverse transcriptase activity (non-radioactive reverse transcriptase assay kit). It is filed as biochemical. How it is done:
The following in vitro experiments were done to determine the effect of compounds of formula 1 on the reduction of HIV enzyme activities in reverse transcription.
Non-radioactive reverse transcriptase assay kit (Boehringer Mannheim) was used in the measurement of in vitro transcriptase activities. 20 μl (40 ng) of HIV transcriptase and 20 μl of reaction mixture containing matrix-primer hybrid poly (A) oligo (dT) 15, DIG(digoxigenin)-dUTP, biotin-dUTP, and TTP were added to wells coated with streptavidin. Test compounds were also added at the final concentrations of 0.1 and 1 μg/ml and allowed to react at 37° C. for 1 hr. At this time, DNA is formed from RNA by the action of HIV transcriptase, forming bonds with streptavidin coated on the bottom of wells because of digoxigenin and biotin moieties attached to nucleotides.
When the reaction was completed, each well was washed with 250 μl. of cleaning buffer (pH 7.0) for 30 sec. five times to remove remaining impurities. 200 μl of anti-DIG-POD […] was added to each well, allowed to react at 37° C. for 1 hr and washed as above to remove impurities. 200 μl of ABTS™, a substrate for peroxidase, was added to each well and allowed to react at room temperature for 30min. Absorbance at 405 nm was then read for each solution using ELISA reader and used for quantitative determination of inhibitory effect on the HIV transcriptase activities. The percentage of reduction in the activities of HIV reverse transcriptase was calculated using the group without test compound as control and the results are represented in Table 5.

For assay [2], the system named is HBV. The assay can be described thus: Inhibition of HBV proliferation in HBV producing cell line HepG 2.2.15 (competitive PCR of culture supernatant). The format is cell-based, Hepatitis B virus. Conditions: HepG 2.2.15, one week; for inhibition at 0.01 µg/mL / inhibition at 0.1 µg/mL / inhibition at 1 µg/mL: Hepatitis B virus, HepG2.2.15, 168 h, read-out: Inhibitory effect on the HBV proliferation, Inhibition activity on HBV-RT (%). How it is done:
The following experiment was performed to determine inhibitory effects of compounds of formula on the proliferation of HBV producing cell line.
To test for antiviral effect, replication and proliferation of HBV were measured in HepG 2.2.15, a human liver cancer cell line.
The cell concentration was adjusted to 1×10^5 cells/ml and 1 ml was added to each well of a 24-well cell culture plate, which was then kept in a culture box for 3-4 days at 37° C. under 5% CO2 until cells grew sufficiently, changing culture medium everyday. When the cells matured sufficiently, the test compounds were added to the final concentrations of 0.01, 0.1, and 1 μg/ml. One week after the addition of test compounds, he culture solution was centrifuged at 5,000 rpm for 10 min. 25 μl of supernatant was transferred to a new tube and 5 μl of lysis solution [0.54N NaOH, 0.06% NP40] was added to each tube. After keeping the tube at 37° C. for 1 hr, 30 μl . of neutralizing solution [0.09NHCl, 0.1MTris-HCl, pH7.4] was added as a reaction solution for competitive polymerase chain reaction (PCR).
PCR was performed using genetic sequence of HBV core protein as a matrix. PCR reaction was carried out by adding 1 unit of Taq polymerase enzyme to 25 pmol of each primer, 250 μM dNTP, 5 μl of PCR reaction solution [0.54N NaOH, 0.06% NP40, 0.09N HCl, 0.1M Tris-HCl, pH 7.4].
DNA polymerized by PCR was electrophoresed on Agarose gel and quantitatively analyzed using an image analyzer (Gel Dcc 1000, Bio-Rad) in order to evaluate the effect of compounds of the present invention on the reduction of HBV proliferation.
3TC (lamivudine) was used as a positive control at the same concentrations as those of the test compounds. The percentage of reduction in HBV proliferation was calculated using the group without test compound as a control and the results are represented in Table 4.

For assay [3], the target named is T2, HBV polymerase (Hepatitis B virus genotype A2 subtype adw2, UniProt P03159).
T2 construct: made in house; host or cells: E. coli
The assay can be described thus: In vitro reverse transcription activity of HBV polymerase (ELISA-type, DIG/biotin nucleotides). It is filed as biochemical. Conditions: for inhibition at 0.01 µg/mL / inhibition at 0.1 µg/mL / inhibition at 1 µg/mL: read-out: Inhibition activity on HBV-RT (%). As to the method: The following in vitro experiment was performed to determine the effect of the compounds of formula 1 on the activity of HBV polymerase during reverse transcription.
The present inventors submitted application for a patent concerning HBV polymerase genetically expressed in and separated from E. coli, the process of its preparation, and the method to measure the enzyme activities (KR 94-3918, KR 96-33998). In the present experiments HBV polymerase was used which had been expressed in E. coli as stated above.
The method used in the present invention to measure in vitro reverse transcribing activities of HBV polymerase is as follows. Basic principles are the same as for ELISA. Nucleotides with biotin or digoxigenin group attached are included as substrates and anti-DIG antibodies attached to peroxidase enzyme recognize the polymerized substrates.
To the wells coated with streptavidin, 20 μl of HBV polymerase, 20 μl of reaction mixture (10 μM each of DIG-UTP and Biotin-UTP, 46 mM Tris-HCl, 266 mM KCl, 27.5 mM MgCl2, 9.2 mM DTT substrate/primer hybrid), and 20 μl of test compound (added to 1, 0.1, and 0.01 μg/ml) were added and allowed to react a 22° C. for 15 hrs. During this reaction, HBV polymerase catalyzes DNA synthesis and digoxigenin and biotin attached to nucleotides form bonds with streptavidin coated on the bottom of wells. When the reaction was done, each well was washed with 250μl of cleaning buffer (pH 7.0) for 30 seconds, which was repeated five times to remove remaining impurities. 200 μl of anti-DIG-POD antibody was added to each well and allowed to react for 1 hr at 37° C., and the wells were washed with cleaning buffer to remove impurities. 200μl each of ABTS™, a substrate of peroxidase, was then added and allowed to react at room temperature for 30 min. Absorbance was measured at 405 nm using ELISA reader.
The percentage of reduction in HBV polymerase activities for reverse transcription was calculated using the group without test compound as a control and the results are shown in Table 3.
(In an ELISA, binding on a coated surface is turned into a signal by an enzyme label.)

T2 sequence (P03159 whole entry): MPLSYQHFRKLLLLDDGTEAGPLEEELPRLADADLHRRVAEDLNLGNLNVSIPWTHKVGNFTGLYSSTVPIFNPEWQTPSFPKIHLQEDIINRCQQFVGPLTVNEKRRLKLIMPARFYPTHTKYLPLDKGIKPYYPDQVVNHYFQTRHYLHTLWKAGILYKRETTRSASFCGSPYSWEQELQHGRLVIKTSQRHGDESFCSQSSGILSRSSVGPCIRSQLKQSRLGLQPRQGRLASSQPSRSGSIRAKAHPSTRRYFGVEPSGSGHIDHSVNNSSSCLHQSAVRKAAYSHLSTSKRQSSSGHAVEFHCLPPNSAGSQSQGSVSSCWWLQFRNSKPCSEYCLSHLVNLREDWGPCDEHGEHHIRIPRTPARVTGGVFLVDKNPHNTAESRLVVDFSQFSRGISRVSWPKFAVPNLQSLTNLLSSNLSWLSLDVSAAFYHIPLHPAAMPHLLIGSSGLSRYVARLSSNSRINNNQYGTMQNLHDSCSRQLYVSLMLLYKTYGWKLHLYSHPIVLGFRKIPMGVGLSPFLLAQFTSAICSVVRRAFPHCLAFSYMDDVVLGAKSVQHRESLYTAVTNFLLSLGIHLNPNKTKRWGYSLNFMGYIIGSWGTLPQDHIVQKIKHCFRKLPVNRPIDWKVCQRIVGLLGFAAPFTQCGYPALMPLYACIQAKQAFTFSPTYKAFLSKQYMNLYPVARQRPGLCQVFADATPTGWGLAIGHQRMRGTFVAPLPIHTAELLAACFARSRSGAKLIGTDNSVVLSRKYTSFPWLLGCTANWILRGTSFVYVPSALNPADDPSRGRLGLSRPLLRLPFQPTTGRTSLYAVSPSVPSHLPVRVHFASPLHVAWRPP

Consider `CSc1ncc(C(N)=O)c(Nc2ccc3[nH]ncc3c2)n1` [Example 1, 4-(1H-5-Indazolylamino)-2-methyl thio-5-pyrimidinecarboxamide], for which the “Inhibitory effect on the activities of HIV reverse transcriptase, Inhibition activity on HBV-RT (%)” value (shortened to “Inhibitory effect on the activities … (%)”) in assay [1] (0.1 μg/ml test compound) worked out at 44%; in assay [1] (1 μg/ml test compound), 65%. The “Inhibitory effect on the HBV proliferation, Inhibition activity on HBV-RT (%)” value is listed as 25% in assay [2] (0.01 μg/ml), 53% in assay [2] (0.1 μg/ml) and 82% in assay [2] (1 μg/ml). The “Inhibition activity on HBV-RT (%)” value stood at 40% in assay [3] (0.01 μg/ml test compound), 63% in assay [3] (0.1 μg/ml test compound) and 90% in assay [3] (1 μg/ml test compound).

Take `CSc1ncc(C(N)=O)c(Nc2ccc3cn[nH]c3c2)n1` [Example 2, 4-(1H-6-Indazolylamino)-2-methylthio-5-pyrimidinecarboxamide]: the figures for the inhibition at 0.01 µg/mL in assay [2] (0.01 μg/ml) and in assay [3] (0.01 μg/ml test compound) were 20% and 36%, respectively. Also, the inhibition at 0.1 µg/mL in assay [2] (0.1 μg/ml) came to 40%; in assay [3] (0.1 μg/ml test compound) it was 55%. Also, the inhibition at 1 µg/mL in assay [2] (1 μg/ml) came out at 70%; in assay [3] (1 μg/ml test compound) it was 85%.

Turning to `Nc1ccn([C@@H]2CS[C@H](CO)O2)c(=O)n1` [Example 3TC, lamivudine, reference compound], the inhibition at 0.01 µg/mL in assay [2] (0.01 μg/ml) turned out to be 48%. In addition, in assay [2] (0.1 μg/ml), the inhibition at 0.1 µg/mL was determined as 80%. Further, the inhibition at 1 µg/mL in assay [2] (1 μg/ml) was found to be 99%.

Take `CCNC(=O)c1cnc(SC)nc1Nc1ccc2[nH]ncc2c1` [Example 5, N-ethyl-4-(1H-5-Indazolylamino)-2-methylthio-5-pyrimidinecarboxamide]: in assay [1] (0.1 μg/ml test compound), the “Inhibitory effect on the activities … (%)” value is recorded as 57%. For the same molecule, in assay [1] (1 μg/ml test compound), the “Inhibition of HIV reverse transcriptase activity” value was 80%. In assay [3] (0.01 μg/ml test compound), the inhibition at 0.01 µg/mL was 20%. The inhibition at 0.1 µg/mL in assay [3] (0.1 μg/ml test compound) was 52%. The inhibition at 1 µg/mL in assay [3] (1 μg/ml test compound) worked out at 70%.

Consider `CSc1ncc(C(=O)NC2CC2)c(Nc2ccc3cn[nH]c3c2)n1` [Example 6, N-cyclopropyl-4-(1H-6-Indazolylamino)-2-methylthio-5-pyrimidinecarboxamide], for which the “Inhibitory effect on the activities … (%)” value in assay [1] (0.1 μg/ml test compound) is on record as 54%. The “Inhibition of HIV reverse transcriptase activity” value in assay [1] (1 μg/ml test compound) is given as 78%. Further, the inhibition at 0.01 µg/mL in assay [3] (0.01 μg/ml test compound) is 24%. In assay [3] (0.1 μg/ml test compound), the inhibition at 0.1 µg/mL was 43%. In addition, in assay [3] (1 μg/ml test compound), the inhibition at 1 µg/mL came to 74%.

As for `CSc1ncc(C(=O)NCCO)c(Nc2ccc3[nH]ncc3c2)n1` [Example 7, N-(2-Hydroxyethyl)-4-(1H-5-indazolylamino)-2-methylthio-5-pyrimidinecarboxamide], the figures for the inhibition at 0.01 µg/mL in assay [2] (0.01 μg/ml) and in assay [3] (0.01 μg/ml test compound) were 21% and 48%, respectively. In addition, the values for the inhibition at 0.1 µg/mL in assay [2] (0.1 μg/ml) and in assay [3] (0.1 μg/ml test compound) were 61% and 76%, respectively. Besides, the inhibition at 1 µg/mL in assay [2] (1 μg/ml) is 92%; in assay [3] (1 μg/ml test compound) it was 93%.

`CSc1ncc(C(=O)N(C)CCO)c(Nc2ccc3cn[nH]c3c2)n1` [Example 10, N-hydroxyethyl-N-methyl-4-(1H-6-indazolylamino)-2-methylthio-5-pyrimidinecarboxamide]: in assay [1] (0.1 μg/ml test compound), the “Inhibitory effect on the activities … (%)” value is listed as 47%. Besides, the “Inhibition of HIV reverse transcriptase activity” value in assay [1] (1 μg/ml test compound) stood at 80%. In assay [3] (0.01 μg/ml test compound), the inhibition at 0.01 µg/mL amounted to 22%. Also, in assay [3] (0.1 μg/ml test compound), the inhibition at 0.1 µg/mL is 48%. For the same molecule, the inhibition at 1 µg/mL in assay [3] (1 μg/ml test compound) amounted to 70%.

In the case of `CC[C@H](CO)NC(=O)c1cnc(SC)nc1Nc1ccc2[nH]ncc2c1` [Example 11], the “Inhibition activity on HBV-RT (%)” value is 44% in assay [3] (0.01 μg/ml test compound), 59% in assay [3] (0.1 μg/ml test compound) and 82% in assay [3] (1 μg/ml test compound).

In the case of `CC[C@H](CO)NC(=O)c1cnc(SC)nc1Nc1ccc2cn[nH]c2c1` [Example 12, N-[(1R)-1-(hydroxymethyl)propyl]-4-(1H-6-indazolylamino)-2-methylthio-5-pyrimidinecarboxamide], the inhibition at 0.01 µg/mL in assay [3] (0.01 μg/ml test compound) amounted to 36%. Moreover, in assay [3] (0.1 μg/ml test compound), the inhibition at 0.1 µg/mL worked out at 55%. Besides, the inhibition at 1 µg/mL in assay [3] (1 μg/ml test compound) was determined as 85%.

For the molecule `COCCNC(=O)c1cnc(SC)nc1Nc1ccc2[nH]ncc2c1` [Example 13, 4-(1H-5-indazolylamino)-N-(2-methoxyethyl)-2-methylthio-5-pyrimidinecarboxamide], the inhibition at 0.01 µg/mL in assay [3] (0.01 μg/ml test compound) came out at 13%. In assay [3] (0.1 μg/ml test compound), the inhibition at 0.1 µg/mL worked out at 40%. For the same molecule, in assay [3] (1 μg/ml test compound), the inhibition at 1 µg/mL is 58%.

`CSc1ncc(C(=O)NCCN2CCOCC2)c(Nc2ccc3cn[nH]c3c2)n1` [Example 20]: the “Inhibitory effect on the activities … (%)” value in assay [1] (0.1 μg/ml test compound) worked out at 50%; in assay [1] (1 μg/ml test compound), 89%. For the same molecule, the “Inhibition activity on HBV-RT (%)” value in assay [3] (0.01 μg/ml test compound) stood at 12%; in assay [3] (0.1 μg/ml test compound), 40%; in assay [3] (1 μg/ml test compound) it was 67%.

Take `CSc1ncc(C(=O)NN2CCOCC2)c(Nc2ccc3[nH]ncc3c2)n1` [Example 35, 4-(1H-5-indazolylamino)-2-methylthio-N-(4-morpholinyl)-5-pyrimidinecarboxamide]: the inhibition at 0.01 µg/mL in assay [2] (0.01 μg/ml) came to 29%; in assay [3] (0.01 μg/ml test compound), 46%. The inhibition at 0.1 µg/mL in assay [2] (0.1 μg/ml) amounted to 50%; in assay [3] (0.1 μg/ml test compound), 61%. In addition, the inhibition at 1 µg/mL in assay [2] (1 μg/ml) was 86%; in assay [3] (1 μg/ml test compound), 90%.
